Our source for the IC50 and CC50 values is paper doi:10.1101/2025.11.04.686469, “Discovery of Host-Directed Small Molecules with Broad Anti-Leishmanial Efficacy” (bioRxiv, 2025).

Bounds are passed on as bounds.

Series [1] deals with intracellular L. donovani amastigotes. As to the kind of experiment: Luminescent-based evaluation of intracellular anti-leishmanial activity in THP-1 macrophages. The series is classed as cell-based, Leishmania donovani. The conditions noted are these: intracellular Leishmania donovani in THP1 macrophages, luminescence assay (Supplemental Table 2); read-out: Lum IC50. The procedure:
Luminescent strains, L. donovani LV82 expressing firefly luciferase (a kind gift from Dr. Abhay Satoskar, Ohio State University) and L. mexicana (NR-51210, ATCC) expressing renilla luciferase were used to evaluate the effect of the compounds in intracellular and extracellular conditions. Wild-type L. donovani LV82 (ATCC) were used for Giemsa staining based experiments. All parasites were cultured at 25°C and 5% CO2 in M199 media (Corning) supplemented with 10% FBS, 1% penicillin/streptomycin, and hemin (0.01 mg/mL), and used in experiments up to passage 15.
THP-1 cells were seeded in a 96 well plate (25,000 cells/well) overnight then differentiated with 150 nM phorbol 12-myristate 13-acetate (PMA) over 72 hours (Supplemental Figure 1). […] Briefly, promastigotes of a known cell density were resuspended in RPMI media (with 10% FBS, 1% P/S and 0.05 mM β-mercaptoethanol) and incubated with adhered THP-1 cells over 18 hours. After infection, cells were washed three times with fresh media to remove extracellular promastigotes.
Infected macrophages were then treated with compounds solubilized in DMSO ranging from 0.1-10 μM in concentrations. After 72 hours of treatment, the viability of the amastigotes within macrophages was determined using Promega firefly luminescence assay (Cat E1500) or Pierce Renilla luciferase assay (Cat 16166) for L. donovani and L. mexicana strains, respectively. Briefly, media was removed, and cells were lysed with the assay lysis buffer. The luciferase substrate was then incubated with the lysed cells for 10 min at room temperature and luminescence of live Leishmania was measured in a white opaque 96 well plate using a Biotek plate reader.

For a further series, the system named is THP-1 macrophages. As to the kind of experiment: Effect of compounds on host cell viability (MTT). The series is classed as cell-based. Particulars: read-out: 24h LC50; THP1 macrophages, 24-hour incubation, MTT assay (Supplemental Table 2). How it is done:
The cells were cultured at 37C, 5% CO2 in RPMI medium (ATCC) supplemented with 10% FBS, 1% Penicillin/Streptomycin and 0.05 mM of β-mercaptoethanol. Cells were used in experiments up to passage 10.
Effect of the compounds on THP-1 cell viability measured using thiazolyl blue tetrazolium bromide which measures cell metabolic activity (MTT). THP-1 cells were seeded in a 96 well plate (25,000 cells/well) overnight then differentiated with 150 nM phorbol 12-myristate 13-acetate (PMA) over 72 hours. Macrophages were then treated with compounds resuspended in RPMI media (1- 50 μM) for 24 hours. Media was replaced with thiazolyl blue tetrazolium bromide solubilized in RPMI media (0.5 mg/mL) and incubated at 37°C for 2 hours. The reduced formazan crystals were solubilized with isopropyl alcohol and the absorbance of the resulting solution was measured at 560 nm with a background subtraction at 670 nm. […] This process was repeated with a 72-hr incubation and extended concentration range (1 - 300 μM) for select compounds.

By IC50 is commonly meant the concentration that inhibits the measured activity by half. Turning to `O=C(CCCCBr)N1CCC(Nc2ccc(-n3nc(C(F)(F)F)cc3-c3ccc(-c4ccc(C(F)(F)F)cc4)cc3)cc2)CC1` [Compound 117], the IC50 in series [1] turned out to be 6.1 µM. Further, the CC50 with THP-1 macrophages is greater than 50 µM.
The corresponding values for `FC(F)(F)c1ccc(-c2ccc(-c3cc(C(F)(F)F)nn3-c3cccc(Br)c3)cc2)cc1` [Compound 190] are greater than 10 µM and greater than 50 µM.
The corresponding values for `FC(F)(F)c1ccc(-c2ccc(-c3cc(C(F)(F)F)nn3-c3ccc(N4CCC(NCc5ccccc5)CC4)cc3)cc2)cc1` [Compound 89] are 4 µM and 8 µM.
Consider `NCCCOc1ccc(CN2CCC(Oc3ccc(-n4nc(C(F)(F)F)cc4C4CCCCC4)cc3)CC2)cc1` [Compound 429], for which the IC50 in series [1] came out at 2.4 µM. Further, the CC50 in the series on THP-1 macrophages worked out at 12.1 µM.
The corresponding values for `N#Cc1ccc(CN2CCC(Oc3ccc(-n4nc(C(F)(F)F)cc4C4CCCCC4)cc3)CC2)cc1` [Compound 373] are 7 µM and greater than 50 µM.
The corresponding values for `Fc1cccc(CN2CC(Nc3ccc(-n4nc(C(F)(F)F)cc4C4CCCCC4)cc3)C2)c1` [Compound 396] are 6.1 µM and 23.3 µM.
The corresponding values for `NC(Cc1ccccc1)C(=O)N1CCC(Nc2ccc(-n3nc(C(F)(F)F)cc3-c3ccc(-c4ccc(C(F)(F)F)cc4)cc3)cc2)C1` (stereo not shown) [Compound 61] are 2.3 µM and 6.1 µM.
As for `CC(C)(C)c1ccc(-c2nc(C(F)(F)F)cn2-c2ccc(N)cc2)cc1` [Compound 149], the IC50 in series [1] was 9.1 µM. Moreover, the CC50 in the series with THP-1 macrophages is 28.8 µM.
As to `N#Cc1ccc(CN2CC(Nc3ccc(-n4nc(C(F)(F)F)cc4C4CCCCC4)cc3)C2)cc1` [Compound 397], the half-maximal inhibitory concentration (IC50) in series [1] worked out at 8.1 µM. Also, in the series with THP-1 macrophages, the CC50 is 27.6 µM.
The corresponding values for `FC(F)(F)c1cc(-c2ccc(C#CC3CC3)cc2)n(-c2ccc(N3CCNCC3)cc2)n1` [Compound 42] are 4.2 µM and 0.7 µM.
The corresponding values for `FC(F)(F)c1cc(-c2cccnc2)n(-c2ccc(Br)cc2)n1` [Compound 249] are greater than 10 µM and 50 µM.
The corresponding values for `CC(C)C#Cc1ccc(-c2cc(C(F)(F)F)nn2-c2ccc(Br)cc2)cc1` [Compound 96] are greater than 10 µM and 37.5 µM.
For `O=C(CNCc1ccc(O)cc1)Nc1ccc(-n2nc(C(F)(F)F)cc2C2CCCCC2)cc1` [Compound 355], the IC50 in series [1] came to 2 µM. Besides, the CC50 in the series on THP-1 macrophages is 21.2 µM.
The corresponding values for `Oc1ccc(CN2CCC(Nc3ccc(-n4nc(C(F)(F)F)cc4C4CCCCC4)cc3)CC2)cc1` [Compound 392] are 4.7 µM and 25.9 µM.
As to `FC(F)(F)c1ccc(-c2ccc(-c3cc(C(F)(F)F)nn3-c3ccc(NC4CNC4)cc3)cc2)cc1` [Compound 3], the IC50 in series [1] is 1.8 µM. Also, in the series on THP-1 macrophages, the CC50 was found to be 11 µM.
The corresponding values for `Fc1cccc(CNC2CCN(c3ccc(-n4nc(C(F)(F)F)cc4-c4ccc(-c5ccc(S(F)(F)(F)(F)F)cc5)cc4)cc3)C2)c1` (stereo not shown) [Compound 108] are greater than 10 µM and greater than 50 µM.
The corresponding values for `O=C(O)c1ccc(-n2cc(C(F)(F)F)nc2-c2ccc(-c3ccc(C(F)(F)F)cc3)cc2)c(F)c1` [Compound 176] are greater than 10 µM and greater than 50 µM.
The corresponding values for `FC(F)(F)c1cc(C2CCCCC2)n(-c2ccc(NC3CNC3)cc2)n1` [Compound 394] are 5.5 µM and 30.9 µM.
In the case of `CC(C)(C)c1cc(C(F)(F)F)nn1-c1ccc(N2CCC(N)C2)cc1` (stereo not shown) [Compound 203], the IC50 in series [1] is 2.9 µM. The CC50 in the series on THP-1 macrophages was found to be 11.8 µM.
The corresponding values for `NCCCCCOc1ccc(CN2CCC(Oc3ccc(-n4nc(C(F)(F)F)cc4C4CCCCC4)cc3)CC2)cc1` [Compound 432] are 2.9 µM and 5.6 µM.
Take `FC(F)(F)c1cc(C2CCCCC2)n(-c2ccc(Br)cc2)n1` [Compound 215]: the IC50 in series [1] was greater than 10 µM. In the series with THP-1 macrophages, the CC50 is greater than 50 µM.
The corresponding values for `FC(F)(F)c1cn(-c2ccc(NCc3ccccc3)cc2)c(-c2ccc(-c3ccccc3)cc2)n1` [Compound 87] are 6.7 µM and greater than 50 µM.
The corresponding values for `NCCCNC1CCN(c2ccc(-n3nc(C(F)(F)F)cc3C3CCCCC3)cc2)CC1` [Compound 420] are 1 µM and 7 µM.
The corresponding values for `CC(C)(C)OC(=O)NC1CCN(c2ccc(-n3nc(C(F)(F)F)cc3-c3ccc(-c4ccc(C(F)(F)F)cc4)cc3)cc2)C1` (stereo not shown) [Compound 140] are greater than 10 µM and greater than 50 µM.
As for `FC(F)(F)c1cc(-c2ccco2)n(-c2ccc(NC3CCNC3)cc2)n1` (stereo not shown) [Compound 273], the half-inhibitory concentration (IC50) in series [1] was determined as 4.9 µM. The CC50 in the series with THP-1 macrophages worked out at 15.6 µM.
Turning to `CS(=O)(=O)c1ccc(-n2nc(C(F)(F)F)cc2-c2ccc(-c3ccc(C(F)(F)F)cc3)cc2)cc1` [Compound 179], in series [1], the IC50 was greater than 10 µM. For the same compound, in the series with THP-1 macrophages, the CC50 came out at 45 µM.
For the compound `NCC(=O)Nc1ccc(-n2cnc3ccccc32)cc1` [Compound 150], the IC50 in series [1] is greater than 10 µM. Further, in the series on THP-1 macrophages, the CC50 is greater than 50 µM.
The corresponding values for `FC(F)(F)c1ccc(-c2ccc(-c3cc(C(F)(F)F)nn3-c3ccc(NC4CCN(Cc5ccccc5)C4)cc3)cc2)cc1` (stereo not shown) [Compound 114] are greater than 10 µM and 13.6 µM.
The corresponding values for `FC(F)(F)c1c[nH]c(-c2ccc(Oc3ccccc3)cc2)n1` [Compound 218] are greater than 10 µM and greater than 50 µM.
The corresponding values for `CC(C)(C)c1ccc(-c2nc(C(F)(F)F)cn2-c2ccc(NC(=O)CN)cc2)cc1` [Compound 157] are greater than 10 µM and 27.6 µM.
As for `O=C(CNCc1ccccc1)Nc1ccc(-n2nc(C(F)(F)F)cc2C2CCCCC2)cc1` [Compound 353], in series [1], the IC50 is 4.2 µM. The CC50 in the series on THP-1 macrophages was 17.5 µM.
As for `CCCCCCCCNc1ccc(-n2nc(C(F)(F)F)cc2-c2ccc(-c3ccc(C(F)(F)F)cc3)cc2)cc1` [Compound 64], the IC50 in series [1] is greater than 10 µM. Moreover, the CC50 in the series on THP-1 macrophages was greater than 50 µM.
The corresponding values for `Oc1ccc(CN2CCC(Nc3ccc(-n4nc(C(F)(F)F)cc4C4CCCCC4)cc3)C2)cc1` (stereo not shown) [Compound 368] are 1.6 µM and 12.1 µM.
The corresponding values for `O=[N+]([O-])c1cccc(-n2nc(C(F)(F)F)cc2-c2ccc(-c3ccc(C(F)(F)F)cc3)cc2)c1` [Compound 189] are greater than 10 µM and greater than 50 µM.
The corresponding values for `NC1CCN(c2ccc(-n3nc(C(F)(F)F)cc3-c3ccncc3)cc2)C1` (stereo not shown) [Compound 168] are 10 µM and greater than 50 µM.
`FC(F)(F)c1ccc(-c2ccc(-c3cc(C(F)(F)F)nn3-c3ccc(NC4CN(Cc5ccccc5)C4)cc3)cc2)cc1` [Compound 113]: in series [1], the IC50 was greater than 10 µM. The CC50 with THP-1 macrophages was 19 µM.
The corresponding values for `CC(C)(C)OC(=O)N1CCC(Oc2ccc(-n3nc(C(F)(F)F)cc3-c3ccc(-c4ccc(C(F)(F)F)cc4)cc3)cc2)C1` (stereo not shown) [Compound 142] are greater than 10 µM and greater than 50 µM.
On to `CC(C)C#Cc1ccc(-c2cc(C(F)(F)F)nn2-c2ccc(N3CCC(N)C3)cc2)cc1` (stereo not shown) [Compound 98], for which, in series [1], the IC50 is greater than 10 µM. Further, the CC50 with THP-1 macrophages was found to be 19.5 µM.
The corresponding values for `Nc1ccc(-n2cc(C(F)(F)F)nc2-c2ccc(Oc3ccccc3)cc2)cc1` [Compound 221] are greater than 10 µM and greater than 50 µM.
The corresponding values for `N#Cc1ccc(-n2cc(C(F)(F)F)cc2-c2ccc(-c3ccc(C(F)(F)F)cc3)cc2)cc1` [Compound 205] are greater than 10 µM and greater than 50 µM.
As to `FC(F)(F)c1ccc(-c2ccc(-c3cc(C(F)(F)F)nn3-c3ccc(N4CC(NCc5ccccc5)C4)cc3)cc2)cc1` [Compound 112], in series [1], the IC50 was greater than 10 µM. The CC50 with THP-1 macrophages is 6.3 µM.
The corresponding values for `Oc1ccc(CN2CCC(Oc3ccc(-n4nc(C(F)(F)F)cc4C4CCCCC4)cc3)C2)cc1` (stereo not shown) [Compound 377] are 8.3 µM and 14.6 µM.
The corresponding values for `NC1CCN(c2ccc(-n3nc(C(F)(F)F)cc3-c3ccc(-c4ccc(S(F)(F)(F)(F)F)cc4)cc3)cc2)C1` (stereo not shown) [Compound 106] are 8.1 µM and 6 µM.
Regarding `O=[N+]([O-])c1ccc(-n2cnc3ccc(Br)cc32)cc1` [Compound 138], the IC50 in series [1] was greater than 10 µM. In the series on THP-1 macrophages, the CC50 is greater than 50 µM.
